We go through 55 compounds from ChEMBL document CHEMBL1150239, “Molecular characteristics for solid-state limited solubility” (J Med Chem, 2008).

One may read the pKa as the pH at which an ionisable group is half protonated. Low readings indicate a stronger acid or weaker base, high ones a weaker acid or stronger base.

A short description of the first data set: Dissociation constant, pKa of the compound.
Conditions: not given
The class given is physicochemical.
`CC(C(=O)O)c1ccc(N2Cc3ccccc3C2=O)cc1` (single isomer, unassigned; (+)) [INDOPROFEN]: the pKa came to 4.6.

In turn, `CCCNC(=O)NS(=O)(=O)c1ccc(Cl)cc1` [CHLORPROPAMIDE] had a pKa of 4.8.

The compound `NCCN1C(=O)CN=C(c2ccccc2F)c2cc(Cl)ccc21` [DESALKYLFLURAZEPAM] yielded a pKa of 11.6.

Compound `CC(C)N(CCC(C(N)=O)(c1ccccc1)c1ccccn1)C(C)C` (stereo not drawn) [DISOPYRAMIDE] yielded a pKa of 10.1.

Take `CCOC(=O)c1ccc(O)cc1` [ETHYLPARABEN]: the pKa came to 8.3.

As for `O=C1Nc2ccc(Cl)cc2C(c2ccccc2Cl)=NC1O` (stereo not drawn) [LORAZEPAM], the pKa was determined as 11.5.

`COc1ccc2[nH]c([S+]([O-])Cc3ncc(C)c(OC)c3C)nc2c1` (stereo not drawn) [OMEPRAZOLE] yielded a pKa of 8.9.

On to `C=CCC1(C(C)CCC)C(=O)NC(=O)NC1=O` (stereo not drawn) [SECOBARBITAL], for which the pKa was 7.8.

For a further data set the following is noted: buffer, pH 10.
For `CCN1c2ncccc2C(=O)N(C)c2ccc(Cl)nc21`, the logS0 is recorded as -4.11.

`CCN1c2ccccc2N(C)C(=O)c2cccnc21` yielded a logS0 of -3.32.

As to `CN1C(=O)c2cccnc2N(C(C)(C)C)c2ncccc21`, the logS0 is -4.85.

`COC(=O)c1cc2nc([S+]([O-])Cc3nccc(OC)c3OC)[nH]c2cc1C` (stereo not drawn) showed a logS0 of -4.41.

`CCCCn1c(C)nc2c1c(=O)n(C)c(=O)n2C` showed a logS0 of -1.75.

`CCCCCC1(CC)C(=O)NC(=O)NC1=O` returned a logS0 of -2.34.

Consider `CCOC(=O)OCn1c([S+]([O-])Cc2nccc(OC)c2OC)nc2cc(C(=O)OC)c(C)cc21` (stereo not drawn), for which the logS0 is -5.21.

Regarding `C=CCC1(CCCC)C(=O)NC(=O)NC1=O`, the logS0 is on record as -2.11.

`CCN1c2ncccc2C(=O)N(C)c2c(C)cc(OC)nc21` displayed a logS0 of -2.62.

With `Cc1ccnc2c1NC(C#N)c1cccnc1N2C1CC1` (stereo not drawn), the logS0 is listed as -4.74.

`Cc1ccc2c(c1)C(=O)Nc1cc(N)ccc1O2` came in with a logS0 of -3.93.

`CCCCC1(CC=C(C)C)C(=O)NC(=O)NC1=O` gave a logS0 of -3.55.

Compound `CN1C(=O)c2cccnc2Oc2ccccc21` yielded a logS0 of -3.76.

`CC(C(=O)O)c1ccc(N2Cc3ccccc3C2=O)cc1` (single isomer, unassigned; (+)) [INDOPROFEN] showed a logS0 of -4.72.

Take `C=CCOc1ccc(CC(=O)O)cc1Cl` [ALCLOFENAC]: the logS0 is given as -3.13.

`CCC[S+]([O-])CCCN(CC)CC(O)COc1ccc(C#N)cc1` (stereo not drawn) [ALMOKALANT] came in with a logS0 of -1.17.

`C=CCc1ccccc1OCC(O)CNC(C)C` (stereo not drawn) [ALPRENOLOL] showed a logS0 of -2.83.

As for `CCCCC[C@H](O)/C=C/[C@H]1[C@H](O)CC(=O)[C@@H]1CCCCCCC(=O)O` [ALPROSTADIL], the logS0 was -3.67.

`CCOC(=O)c1ccc(N)cc1` [BENZOCAINE] displayed a logS0 of -2.34.

`O=C(O)c1ccccc1` [BENZOIC ACID] yielded a logS0 of -1.58.

Regarding `C[C@H]1C[C@H]2[C@@H]3CCC4=CC(=O)C=C[C@]4(C)[C@@]3(F)[C@@H](O)C[C@]2(C)[C@@]1(O)C(=O)CO` [BETAMETHASONE], the logS0 is given as -3.77.

In turn, `C=C(Br)CC1(C(C)CC)C(=O)NC(=O)NC1=O` (stereo not drawn) [BUTALLYLONAL] returned a logS0 of -2.65.

On to `CCCNC(=O)NS(=O)(=O)c1ccc(Cl)cc1` [CHLORPROPAMIDE], for which the logS0 is -3.3.

`COC(=O)[C@H]1[C@@H](OC(=O)c2ccccc2)C[C@@H]2CC[C@H]1N2C` [COCAINE]: the logS0 is reported as -2.25.

Consider `C[C@]12C[C@H](O)[C@H]3[C@@H](CCC4=CC(=O)CC[C@@]43C)[C@@H]1CC[C@@H]2C(=O)CO` [CORTICOSTERONE], for which the logS0 is -3.28.

In turn, `CC(=O)OCC(=O)[C@@]1(O)CC[C@H]2[C@@H]3CCC4=CC(=O)CC[C@]4(C)[C@H]3C(=O)C[C@@]21C` [CORTISONE ACETATE] came in with a logS0 of -4.21.

Take `CCC1(C2=CCCCC2)C(=O)NC(=O)NC1=O` [CYCLOBARBITAL]: the logS0 was -2.12.

`CC(C)Nc1cccnc1N1CCN(C(=O)c2cc3cc(NS(C)(=O)=O)ccc3[nH]2)CC1` [DELAVIRDINE] returned a logS0 of -5.74.

Compound `NCCN1C(=O)CN=C(c2ccccc2F)c2cc(Cl)ccc21` [DESALKYLFLURAZEPAM] gave a logS0 of -3.72.

Regarding `C[C@@H]1C[C@H]2[C@@H]3CCC4=CC(=O)C=C[C@]4(C)[C@@]3(F)[C@@H](O)C[C@]2(C)[C@@]1(O)C(=O)CO` [DEXAMETHASONE], the logS0 is on record as -3.59.

Turning to `CCCCC[C@H](O)/C=C/[C@H]1[C@H](O)CC(=O)[C@@H]1C/C=C\CCCC(=O)O` [DINOPROSTONE], the logS0 is on record as -2.47.

For the compound `CC(C)N(CCC(C(N)=O)(c1ccccc1)c1ccccn1)C(C)C` (stereo not drawn) [DISOPYRAMIDE], the logS0 is on record as -2.38.

The compound `CCOC(=O)c1ccc(O)cc1` [ETHYLPARABEN] had a logS0 of -2.38.

Compound `COC1=CC(=O)C[C@@H](C)[C@]12Oc1c(Cl)c(OC)cc(OC)c1C2=O` [GRISEOFULVIN] yielded a logS0 of -4.83.

In the case of `CCC1(C2=CCCCCC2)C(=O)NC(=O)NC1=O` [HEPTABARBITAL], the logS0 is given as -2.91.

In turn, `CC(=O)OCC(=O)[C@@]1(O)CC[C@H]2[C@@H]3CCC4=CC(=O)CC[C@]4(C)[C@H]3[C@@H](O)C[C@@]21C` [HYDROCORTISONE ACETATE] yielded a logS0 of -4.34.

Regarding `CC(=O)N1CCN(c2ccc(OC[C@H]3CO[C@](Cn4ccnc4)(c4ccc(Cl)cc4Cl)O3)cc2)CC1` [KETOCONAZOLE], the logS0 is reported as -3.8.

Turning to `CC(CCc1ccccc1)NCC(O)c1ccc(O)c(C(N)=O)c1` (stereo not drawn) [LABETALOL], the logS0 is on record as -3.41.

As for `O=C1Nc2ccc(Cl)cc2C(c2ccccc2Cl)=NC1O` (stereo not drawn) [LORAZEPAM], the logS0 is listed as -3.74.

`Cc1ccccc1N1C(=O)c2cc(S(N)(=O)=O)c(Cl)cc2NC1C` (stereo not drawn) [METOLAZONE] showed a logS0 of -4.33.

`COc1ccc2[nH]c([S+]([O-])Cc3ncc(C)c(OC)c3C)nc2c1` (stereo not drawn) [OMEPRAZOLE]: the logS0 is -3.4.

For `Nc1ccc(/N=N/c2ccccc2)c(N)n1` [PHENAZOPYRIDINE], the logS0 is -4.53.

`O=C1NC(=O)C(c2ccccc2)(c2ccccc2)N1` [PHENYTOIN] registered a logS0 of -4.15.

`CN1C(C(=O)Nc2ccccn2)=C(O)c2ccccc2S1(=O)=O` [PIROXICAM] registered a logS0 of -4.03.

In turn, `CC(=O)OCC(=O)[C@@]1(O)CC[C@H]2[C@@H]3CCC4=CC(=O)C=C[C@]4(C)[C@H]3[C@@H](O)C[C@@]21C` [PREDNISOLONE ACETATE] yielded a logS0 of -4.37.

`COc1cc(NC(C)CCCN)c2ncccc2c1` (stereo not drawn) [PRIMAQUINE] displayed a logS0 of -2.52.

Consider `CCN(CC)CCOC(=O)c1ccc(N)cc1` [PROCAINE], for which the logS0 was -1.78.

With `CC(C)NCC(O)COc1cccc2ccccc12` (stereo not drawn) [PROPRANOLOL], the logS0 is recorded as -3.92.

For the compound `CCC1(C2=CC3CCC(C2)C3)C(=O)NC(=O)NC1=O` (stereo not drawn) [REPOSAL], the logS0 is listed as -2.7.

Consider `O=C(O)c1ccccc1O` [SALICYLIC ACID], for which the logS0 is recorded as -1.8.

The compound `C=CCC1(C(C)CCC)C(=O)NC(=O)NC1=O` (stereo not drawn) [SECOBARBITAL] showed a logS0 of -2.36.

As for `CC(=O)OCC(=O)[C@@]1(O)[C@H](OC(C)=O)C[C@H]2[C@@H]3CCC4=CC(=O)C=C[C@]4(C)[C@@]3(F)[C@@H](O)C[C@@]21C` [TRIAMCINOLONE DIACETATE], the logS0 is -4.31.

The compound `Cc1nnc2n1-c1ccc(Cl)cc1C(c1ccccc1Cl)=NC2` [TRIAZOLAM] had a logS0 of -4.04.

`COc1cc2c(N)nc(N3CCN(C(=O)OCC(C)(C)O)CC3)nc2c(OC)c1OC` [TRIMAZOSIN] showed a logS0 of -3.64.

The compound `CC/C=C(\C)C1(CC)C(=O)NC(=O)NC1=O` [VINBARBITAL] came in with a logS0 of -2.3.
